For the experiment, the target named is T1, IRAK4 (Homo sapiens, UniProt Q9NWZ3).
T1 construct: C-terminal HiBiT-tagged Jurkat cells (polyclonal cell line or clone 8D5); endogenous in cells; host or cells: Jurkat cells (polyclonal cell line or clone 8D5), HiBiT-tagged
T1 sequence (Q9NWZ3 1-460): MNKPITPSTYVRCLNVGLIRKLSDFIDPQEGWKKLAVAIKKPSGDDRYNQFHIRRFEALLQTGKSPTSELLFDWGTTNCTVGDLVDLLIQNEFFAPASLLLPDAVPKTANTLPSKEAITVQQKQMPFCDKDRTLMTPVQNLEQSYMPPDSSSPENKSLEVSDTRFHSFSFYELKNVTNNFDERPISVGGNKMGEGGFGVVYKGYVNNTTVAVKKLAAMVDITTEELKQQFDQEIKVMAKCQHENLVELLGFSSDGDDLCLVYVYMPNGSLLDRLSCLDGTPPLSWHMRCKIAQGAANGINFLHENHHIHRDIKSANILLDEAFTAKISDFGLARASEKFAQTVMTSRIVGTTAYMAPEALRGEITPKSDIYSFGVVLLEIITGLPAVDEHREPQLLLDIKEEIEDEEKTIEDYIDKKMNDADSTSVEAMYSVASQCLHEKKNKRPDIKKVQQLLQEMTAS
As to the kind of experiment: IRAK4 Degradation HiBit Assay. The class given is cell-based. As to conditions: C-terminal HiBiT-tagged Jurkat cells, 4 hrs incubation; for DC50: % IRAK4 remaining, four-parameter fit (IC50 used as DC50); for Dmax: from fit of % IRAK4 remaining, read-out: Dmax. As for the experimental part:
Compound dilution series (11-point, 3.16-fold dilutions in DMSO, columns 1-11 and 12-22) at 500× the final required concentrations were prepared in Labcyte LDV 384-well plates (cat. no. LP-0200) using a Labcyte Echo 550 Liquid Handler. The 500× solutions ranged from 5 mM to 0.5 μM (final assay concentration range 10 μM to 0.1 nM). Using the Echo, the 500× solutions were stamped into white, 384-well assay plates (Corning, cat. no. 3570) at 60 nL/well. The following assay plate controls were also stamped at 60 nL/well: DMSO in wells E23-P23 (NC, Negative Control, maximum signal), 5 mM solution control compound al in wells A23-D23 and M24-P24 (AC, Active Control, minimum signal/background, 10 μM final assay concentration), control compound al dilution series in wells […] (12-point, 4-fold dilutions). C-terminal HiBiT-tagged Jurkat cells (polyclonal cell line or clone 8D5) were plated at 1×10^6 cells/mL, 30 μL/well (3×10^4 cells/well) in complete RPMI (10% FBS, 1% L-glutamine). Cells were incubated for 4 hrs at 32° C./6% CO2. Compound al has the following structure:
Following incubation, 30 μL of complete Nano-Glo HiBiT Lytic Detection Reagent (Nano-Glo HiBiT Lytic Buffer with 1:50 Nano-Glo HiBiT Lytic Substrate and 1:100 LgBiT Protein; Promega cat. no. N3040) was added. Cells were further incubated for 10 min at room temperature (RT). Luminescence units (LU) were read on an EnVision plate reader (Perkin Elmer, 0.1 sec per well). Percent IRAK4 remaining per sample was calculated as follows: […]
Using Graphpad Prism, % IRAK4 remaining values were plotted as a function of compound concentration. To determine DC50 and Dmax values, resulting curves were fit to the Prism curve-fitting equation “log (inhibitor) vs response-Variable slope (four parameters)” (reported best fit value IC50 used as DC50). Table 1 summarizes the biological data of Compounds of Examples 1-137 and 142-145 obtained from the assays described herein.

In general, DC50 refers to the midpoint of the concentration-degradation curve. The term Dmax denotes the greatest extent of degradation seen.

With `C[C@H](C#N)Nc1cc(-c2ccc3cc(C#N)cnn23)ncc1-c1nnc(N2CC3CCC(C2)N3CC2CCN(c3ccc([C@@H]4CCC(=O)NC4=O)cn3)CC2)s1` (single isomer, unassigned) [Example 135], the DC50 came out at 5 nM and the Dmax was 108%.

With `N#Cc1cnn2c(-c3cc(NC4CCOCC4)c(-c4nnc(N5CC6CCC(C5)N6CC5CCN(c6ccc([C@@H]7CCC(=O)NC7=O)cc6)CC5)s4)cn3)ccc2c1` (single isomer, unassigned) [Example 109], it took 52 nM to reach half-maximal degradation (DC50) and the Dmax amounted to 94%.

With `CNc1cc(-c2ccc3cc(C#N)cnn23)ncc1-c1nnc(N2CC3(CCN(CC4CCN(c5ccc(C6CCC(=O)NC6=O)cn5)CC4)CC3)C2)s1` (racemic) [Example 55, rac-7-[5-(5-{7-[(1-{5-[(3R)-2,6-dioxopiperidin-3-yl]pyridin-2-yl}piperidin-4-yl)methyl]-2,7-diazaspiro[3.5]nonan-2-yl}-1,3,4-thiadiazol-2-yl)-4-(methylamino)pyridin-2-yl]pyrrolo[1,2-b]pyridazine-3-carbonitrile], it took 61 nM to reach half-maximal degradation (DC50) and the Dmax was 109%.

As to `C[C@H](C#N)Nc1cc(-c2ccc3cc(C#N)cnn23)ncc1-c1nnc(N2CC3CCC(C2)N3CC2CCN(c3ccc([C@H]4CCC(=O)NC4=O)cn3)CC2)s1` (single isomer, unassigned) [Example 142], half-maximal degradation (DC50) was put at 12 nM and the Dmax is 96%.

In the case of `CNc1cc(-c2ccc3cc(C#N)cnn23)ncc1-c1nnc(C23CCC(CN4CCN(c5ccc(C6CCC(=O)NC6=O)cn5)CC4)(CC2)CC3)s1` (racemic) [Example 25, rac-7-[5-(5-{4-[(4-{5-[(3R)-2,6-dioxopiperidin-3-yl]pyridin-2-yl}piperazin-1-yl)methyl]bicyclo[2.2.2]octan-1-yl}-1,3,4-thiadiazol-2-yl)-4-(methylamino)pyridin-2-yl]pyrrolo[1,2-b]pyridazine-3-carbonitrile], the DC50 stood at 53 nM and the Dmax was determined as 106%.

Turning to `N#Cc1cnn2c(-c3cc(NC4CCOCC4)c(-c4nnc(N5CCN(CC6CCN(c7ccc(C8CCC(=O)NC8=O)nc7)CC6)CC5)s4)cn3)ccc2c1` (racemic) [Example 106, rac-7-[5-(5-{4-[(1-{6-[(3R)-2,6-dioxopiperidin-3-yl]pyridin-3-yl}piperidin-4-yl)methyl]piperazin-1-yl}-1,3,4-thiadiazol-2-yl)-4-[(oxan-4-yl)amino]pyridin-2-yl]pyrrolo[1,2-b]pyridazine-3-carbonitrile], the DC50 was 21 nM and the Dmax worked out at 99%.

On to `N#CCNc1cc(-c2ccc3cc(C#N)cnn23)ncc1-c1nnc(N2CC3CCC(C2)N3CC2CCN(c3ccc([C@H]4CCC(=O)NC4=O)cc3)CC2)s1` (racemic) [Example 105, rac-7-{4-[(cyanomethyl)amino]-5-(5-{8-[(1-{4-[(3R)-2,6-dioxopiperidin-3-yl]phenyl}piperidin-4-yl)methyl]-3,8-diazabicyclo[3.2.1]octan-3-yl}-1,3,4-thiadiazol-2-yl)pyridin-2-yl}pyrrolo[1,2-b]pyridazine-3-carbonitrile], for which the 50% degradation concentration (DC50) stood at 6 nM and the Dmax came to 112%.

Turning to `N#Cc1cnn2c(-c3cc(NC4CCOCC4)c(-c4nnc(C56CCC(CN7CCC(Oc8ccc(C9CCC(=O)NC9=O)cn8)CC7)(CC5)CC6)s4)cn3)ccc2c1` (racemic) [Example 24, rac-7-{5-[5-(4-{[4-({5-[(3R)-2,6-dioxopiperidin-3-yl]pyridin-2-yl}oxy)piperidin-1-yl]methyl}bicyclo[2.2.2]octan-1-yl)-1,3,4-thiadiazol-2-yl]-4-[(oxan-4-yl)amino]pyridin-2-yl}pyrrolo[1,2-b]pyridazine-3-carbonitrile], it took 77 nM to reach half-maximal degradation (DC50) and the Dmax turned out to be 83%.

As to `C[C@H](C#N)Nc1cc(-c2ccc3cc(C#N)cnn23)ncc1-c1nnc(N2CCN(CC3CCN(c4ccc([C@@H]5CCC(=O)NC5=O)cn4)CC3)CC2)s1` (single isomer, unassigned) [Example 129], the DC50 came out at 5 nM and the Dmax is 113%.

`N#Cc1cnn2c(-c3cc(NC4CCOCC4)c(-c4nnc(N5CCN(CC6CCN(c7ccc(C8CCC(=O)NC8=O)cc7)CC6)CC5)s4)cn3)ccc2c1` (racemic) [Example 9, rac-7-[5-(5-{4-[(1-{4-[(3R)-2,6-dioxopiperidin-3-yl]phenyl}piperidin-4-yl)methyl]piperazin-1-yl}-1,3,4-thiadiazol-2-yl)-4-[(oxan-4-yl)amino]pyridin-2-yl]pyrrolo[1,2-b]pyridazine-3-carbonitrile]: it took 69 nM to reach half-maximal degradation (DC50) and the Dmax was found to be 90%.

`N#Cc1cnn2c(-c3cc(NC4CCOCC4)c(-c4nnc(N5CCN(C[C@H]6CC[C@H](Oc7ccc([C@@H]8CCC(=O)NC8=O)cn7)CC6)CC5)s4)cn3)ccc2c1` (racemic) [Example 107, 7-{4-[(oxan-4-yl)amino]-5-[5-(4-{[(1r,4r)-4-({5-[(3RS)-2,6-dioxopiperidin-3-yl]pyridin-2-yl}oxy)cyclohexyl]methyl}piperazin-1-yl)-1,3,4-thiadiazol-2-yl]pyridin-2-yl}pyrrolo[1,2-b]pyridazine-3-carbonitrile]: the 50% degradation concentration (DC50) came out at 65 nM and the Dmax worked out at 111%.

As for `CCNc1cc(-c2ccc3cc(C#N)cnn23)ncc1-c1nnc(N2CC3CCC(C2)N3CC2CCN(c3ccc([C@H]4CCC(=O)NC4=O)cc3)CC2)s1` (racemic) [Example 102, rac-7-[5-(5-{8-[(1-{4-[(3R)-2,6-dioxopiperidin-3-yl]phenyl}piperidin-4-yl)methyl]-3,8-diazabicyclo[3.2.1]octan-3-yl}-1,3,4-thiadiazol-2-yl)-4-(ethylamino)pyridin-2-yl]pyrrolo[1,2-b]pyridazine-3-carbonitrile], the DC50 is 42 nM and the Dmax is 107%.

As for `CNc1cc(-c2ccc3cc(C#N)cnn23)ncc1-c1nnc([C@H]2CC[C@H](N(C)C(=O)C3CCN(c4ccc([C@@H]5CCC(=O)NC5=O)cn4)CC3)CC2)s1` (racemic) [Example 49, 1-{5-[(3RS)-2,6-dioxopiperidin-3-yl]pyridin-2-yl}-N-methyl-N-[(1r,4r)-4-[5-(6-{3-cyanopyrrolo[1,2-b]pyridazin-7-yl}-4-(methylamino)pyridin-3-yl)-1,3,4-thiadiazol-2-yl]cyclohexyl]piperidine-4-carboxamide], half-maximal degradation (DC50) was put at 13 nM and the Dmax was determined as 112%.

As to `CNc1cc(-c2ccc3cc(C#N)cnn23)ncc1-c1nnc(N2CCC(C3CCN(CC4CCN(c5ccc(C6CCC(=O)NC6=O)cn5)CC4)CC3)CC2)s1` (racemic) [Example 54, rac-7-[5-(5-{1′-[(1-{5-[(3R)-2,6-dioxopiperidin-3-yl]pyridin-2-yl}piperidin-4-yl)methyl]-[4,4′-bipiperidin]-1-yl}-1,3,4-thiadiazol-2-yl)-4-(methylamino)pyridin-2-yl]pyrrolo[1,2-b]pyridazine-3-carbonitrile], it took 95 nM to reach half-maximal degradation (DC50) and the Dmax worked out at 112%.

In the case of `N#Cc1cnn2c(-c3cc(NC4CCOCC4)c(-c4nnc(C56CCC(C(=O)N7CCC(Oc8ccc(C9CCC(=O)NC9=O)cn8)CC7)(CC5)CC6)s4)cn3)ccc2c1` (racemic) [Example 21, rac-7-[5-(5-{4-[4-({5-[(3R)-2,6-dioxopiperidin-3-yl]pyridin-2-yl}oxy)piperidine-1-carbonyl]bicyclo[2.2.2]octan-1-yl}-1,3,4-thiadiazol-2-yl)-4-[(oxan-4-yl)amino]pyridin-2-yl]pyrrolo[1,2-b]pyridazine-3-carbonitrile], half-maximal degradation (DC50) was put at 60 nM and the Dmax is 91%.

Values taken from patent US12570662B2, “Substituted pyrrolo[1,2-b]pyridazines as bifunctional degraders of interleukin-1 receptor-associated kinases” (Nurix Therapeutics, Inc., priority 2021, dated 2026).
